Measured values published in publication PMC6364417, “Kinase inhibitor library screening identifies synergistic drug combinations effective in sensitive and resistant melanoma cells” (Journal of Experimental & Clinical Cancer Research : CR, 2019).

Legend:
Experiment in all cases: Kinase inhibitor library screening, PrestoBlue cell viability, 1 or 10 μM, 72 h
[1] = tested on: A375-XP cells (Vemurafenib-resistant); conditions: for viability at 1 µM / viability at 10 µM: Homo sapiens, A-375, 72 h; for viability at 1 µM: read-out: cell viability, A375 XP, 1μΜ; for viability at 10 µM: read-out: cell viability, A375 XP, 10μΜ
Experimental: (§1) After 72 h of treatment, cell viability was assessed using the PrestoBlue Cell Viability Reagent (ThermoFisher Scientific). Measurements were performed with the CLARIOstar Monochromator microplate reader (BMG Labtech).
(§2) Kinase inhibitor library screening. […] Each cell line was treated in its sensitive form (parental), and also as 2 resistant derivatives, which were made resistant to either Vemurafenib (XP) or Dabrafenib (GP). Drugs were added at 2 different concentrations, 1 and 10 μM, for 72 h and cell viability was assessed using the PrestoBlue Cell Viability assay. Results are depicted as % viability compared to untreated cells. Each cell line was analyzed at least in duplicate. […] (XLSX 95 kb)

[2] = tested on: IGR37-XP cells (Vemurafenib-resistant); conditions: for viability at 1 µM / viability at 10 µM: Homo sapiens, IGR-37, 72 h; for viability at 1 µM: read-out: cell viability, IGR37 XP, 1μΜ; for viability at 10 µM: read-out: cell viability, IGR37 XP, 10μΜ
Experimental: as §1, §2

[3] = tested on: A375-GP cells (Dabrafenib-resistant); conditions: for viability at 1 µM / viability at 10 µM: Homo sapiens, A-375, 72 h; for viability at 1 µM: read-out: cell viability, A375 GP, 1μΜ; for viability at 10 µM: read-out: cell viability, A375 GP, 10μΜ
Experimental: as §1, §2

IGR37 cells (parental) = conditions: for viability at 1 µM / viability at 10 µM: Homo sapiens, IGR-37, 72 h; for viability at 1 µM: read-out: cell viability, IGR37 Parental, 1μΜ; for viability at 10 µM: read-out: cell viability, IGR37 Parental, 10μΜ
Experimental: as §1, §2

[4] = tested on: 501Mel-GP cells (Dabrafenib-resistant); conditions: for viability at 1 µM / viability at 10 µM: Homo sapiens; for viability at 1 µM: read-out: cell viability, 501Mel GP, 1μΜ; for viability at 10 µM: read-out: cell viability, 501Mel GP, 10μΜ
Experimental: as §1, §2

[5] = tested on: 501Mel-XP cells (Vemurafenib-resistant); conditions: for viability at 1 µM / viability at 10 µM: Homo sapiens; for viability at 1 µM: read-out: cell viability, 501Mel XP, 1μΜ; for viability at 10 µM: read-out: cell viability, 501Mel XP, 10μΜ
Experimental: as §1, §2

501Mel cells (parental) = conditions: for viability at 1 µM / viability at 10 µM: Homo sapiens; for viability at 1 µM: read-out: cell viability, 501Mel Parental, 1μΜ; for viability at 10 µM: read-out: cell viability, 501Mel Parental, 10μΜ
Experimental: as §1, §2

[6] = tested on: IGR37-GP cells (Dabrafenib-resistant); conditions: for viability at 1 µM / viability at 10 µM: Homo sapiens, IGR-37, 72 h; for viability at 1 µM: read-out: cell viability, IGR37 GP, 1μΜ; for viability at 10 µM: read-out: cell viability, IGR37 GP, 10μΜ; for cell viability (kinase inhibitor library screening): in %
Experimental: as §1, §2

A375 cells (parental) = conditions: for viability at 1 µM / viability at 10 µM: Homo sapiens, A-375, 72 h; for viability at 1 µM: read-out: cell viability, A375 Parental, 1μΜ; for viability at 10 µM: read-out: cell viability, A375 Parental, 10μΜ
Experimental: as §1, §2

**Q.** Which results are given for `Oc1c2ccccc2c2c3c(cccc13)N=N2` [SP600125]?
**A.** viability at 1 µM [1]: 103%; viability at 10 µM [1]: 91.5%; viability at 1 µM [2]: 96.5%; viability at 10 µM [2]: 45.8%; viability at 1 µM [3]: 98.3%; viability at 10 µM [3]: 83.9%; viability at 1 µM (IGR37 cells (parental)): 98.4%; viability at 10 µM (IGR37 cells (parental)): 70.6%; viability at 1 µM ([4]; 72 h): 95.4%; viability at 10 µM ([4]; 72 h): 66.8%; viability at 1 µM ([5]; 72 h): 94.3%; viability at 10 µM ([5]; 72 h): 54.5%; viability at 1 µM (501Mel cells (parental); 72 h): 107%; viability at 10 µM (501Mel cells (parental); 72 h): 75.1%; viability at 1 µM [6]: 92.5%; viability at 10 µM [6]: 74.4%; viability at 1 µM (A375 cells (parental)): 102%; viability at 10 µM (A375 cells (parental)): 79.2%

**Q.** How did the “cell viability, A375 XP, 1μΜ” value ([1]; A375 XP, 1μΜ, 72 h, in %) turn out when `CN(c1ncccc1CNc1nc(Nc2ccc3c(c2)CC(=O)N3)ncc1C(F)(F)F)S(C)(=O)=O` [PF-00562271] was run?
**A.** 107.5

**Q.** And the “cell viability, A375 XP, 10μΜ” value ([1]; A375 XP, 10μΜ, 72 h, in %)?
**A.** 3.4

**Q.** And the cell viability, IGR37 XP, 10μΜ ([2]; IGR37 XP, 10μΜ, 72 h)?
**A.** 1.9%

**Q.** And the “cell viability, IGR37 XP, 1μΜ” value ([2]; IGR37 XP, 1μΜ, 72 h, in %)?
**A.** 82.7

**Q.** And the “cell viability, A375 GP, 1μΜ” value ([3]; A375 GP, 1μΜ, 72 h, in %)?
**A.** 92.2

**Q.** What about the “cell viability, A375 GP, 10μΜ” value ([3]; A375 GP, 10μΜ, 72 h, in %) of the same molecule?
**A.** 4.9

**Q.** What about the “cell viability, IGR37 Parental, 1μΜ” value (IGR37 cells (parental); IGR37 Parental, 1μΜ, 72 h, in %) of the same molecule?
**A.** 103.3

**Q.** And the “cell viability, IGR37 Parental, 10μΜ” value (IGR37 cells (parental); IGR37 Parental, 10μΜ, 72 h, in %)?
**A.** 3.6

**Q.** And the “cell viability, 501Mel GP, 1μΜ” value ([4]; 501Mel GP, 1μΜ, 72 h, in %)?
**A.** 98.0

**Q.** What about the “cell viability, 501Mel GP, 10μΜ” value ([4]; 501Mel GP, 10μΜ, 72 h, in %) of the same molecule?
**A.** 0.9

**Q.** And the “cell viability, 501Mel XP, 1μΜ” value ([5]; 501Mel XP, 1μΜ, 72 h, in %)?
**A.** 94.1

**Q.** And the “cell viability, 501Mel XP, 10μΜ” value ([5]; 501Mel XP, 10μΜ, 72 h, in %)?
**A.** 0.458

**Q.** And the “cell viability, 501Mel Parental, 10μΜ” value (501Mel cells (parental); 501Mel Parental, 10μΜ, 72 h, in %)?
**A.** 1.5

**Q.** And the cell viability, IGR37 GP, 10μΜ ([6]; IGR37 GP, 10μΜ, 72 h)?
**A.** 2.9%

**Q.** What about the “cell viability, A375 Parental, 1μΜ” value (A375 cells (parental); A375 Parental, 1μΜ, 72 h, in %) of the same molecule?
**A.** 104.9

**Q.** And the “cell viability, A375 Parental, 10μΜ” value (A375 cells (parental); A375 Parental, 10μΜ, 72 h, in %)?
**A.** 4.0

**Q.** With `N#CC[C@H](C1CCCC1)n1cc(-c2ncnc3[nH]ccc23)cn1` [Ruxolitinib (INCB018424)] as the molecule, how does the viability at 1 µM [1] read?
**A.** 102%

**Q.** What about the viability at 10 µM [1] of the same molecule?
**A.** 106%

**Q.** And the viability at 1 µM [2]?
**A.** 103%

**Q.** And the viability at 10 µM [2]?
**A.** 76.6%

**Q.** What about the viability at 1 µM [3] of the same molecule?
**A.** 95.8%

**Q.** And the viability at 10 µM [3]?
**A.** 88.9%

**Q.** What about the viability at 1 µM (IGR37 cells (parental)) of the same molecule?
**A.** 97%

**Q.** And the viability at 10 µM (IGR37 cells (parental))?
**A.** 96.3%

**Q.** And the viability at 1 µM ([4]; 72 h)?
**A.** 103%

**Q.** And the viability at 10 µM ([4]; 72 h)?
**A.** 87.9%

**Q.** And the viability at 1 µM ([5]; 72 h)?
**A.** 93.9%

**Q.** And the viability at 10 µM ([5]; 72 h)?
**A.** 86.6%

**Q.** And the viability at 1 µM (501Mel cells (parental); 72 h)?
**A.** 95.6%

**Q.** And the viability at 10 µM (501Mel cells (parental); 72 h)?
**A.** 96.5%

**Q.** And the viability at 1 µM [6]?
**A.** 93.2%

**Q.** And the viability at 10 µM [6]?
**A.** 88.6%

**Q.** What about the viability at 1 µM (A375 cells (parental)) of the same molecule?
**A.** 102%

**Q.** What about the viability at 10 µM (A375 cells (parental)) of the same molecule?
**A.** 92.9%

**Q.** Which results are given for `COc1cc2c(Oc3ccc4[nH]c(C)cc4c3F)ncnc2cc1OCCCN1CCCC1` [Cediranib (AZD2171)]?
**A.** cell viability (kinase inhibitor library screening) ([1]; A375 XP, 1μΜ, in %): 104.3; cell viability (kinase inhibitor library screening) ([1]; A375 XP, 10μΜ, in %): 4.2; cell viability (kinase inhibitor library screening) ([2]; IGR37 XP, 1μΜ, in %): 97.7; cell viability (kinase inhibitor library screening) ([2]; IGR37 XP, 10μΜ, in %): 1.6; cell viability (kinase inhibitor library screening) ([3]; A375 GP, 1μΜ, in %): 97.5; cell viability (kinase inhibitor library screening) ([3]; A375 GP, 10μΜ, in %): 15.1; cell viability (kinase inhibitor library screening) (IGR37 cells (parental); IGR37 Parental, 1μΜ, in %): 94.9; cell viability (kinase inhibitor library screening) (IGR37 cells (parental); IGR37 Parental, 10μΜ, in %): 1.6; cell viability (kinase inhibitor library screening) ([4]; 501Mel GP, 1μΜ, in %): 105.5; cell viability (kinase inhibitor library screening) ([4]; 501Mel GP, 10μΜ, in %): 0.9; cell viability (kinase inhibitor library screening) ([5]; 501Mel XP, 1μΜ, in %): 89.8; cell viability (kinase inhibitor library screening) ([5]; 501Mel XP, 10μΜ, in %): -0.129; cell viability (kinase inhibitor library screening) (501Mel cells (parental); 501Mel Parental, 10μΜ, in %): 1.2; cell viability (kinase inhibitor library screening) ([6]; IGR37 GP, 1μΜ): 99.5; cell viability (kinase inhibitor library screening) ([6]; IGR37 GP, 10μΜ): 4.2; cell viability (kinase inhibitor library screening) (A375 cells (parental); A375 Parental, 1μΜ, in %): 105.9; cell viability (kinase inhibitor library screening) (A375 cells (parental); A375 Parental, 10μΜ, in %): 27.2
